From PubChem BioAssay (NCI)
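Five compound concentrations were applied to cells in 96-well plates for 48 hours; endpoints were derived by simple linear interpolation of the resulting dose-response curve. TGI is the concentration that stops growth completely.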

Tests used:
Experiment in all cases: growth of human tumour cells (NCI), 48 h
[1] = test system: A549 NSCLC
[2] = test system: CAKI-1 renal
[3] = test system: DU-145 prostate
[4] = test system: HL-60(TB) leukemia
[5] = test system: LOX IMVI melanoma
[6] = test system: MCF7 breast
[7] = test system: OVCAR-5 ovarian
[8] = test system: RPMI-8226 leukemia
[9] = test system: UACC-257 melanoma
[10] = test system: RXF 393 renal
[11] = test system: SK-OV-3 ovarian

| SMILES | TGI [1] [µM] | TGI [2] [µM] | TGI [3] [µM] | TGI [4] [µM] | TGI [5] [µM] | TGI [6] [µM] | TGI [7] [µM] | TGI [8] [µM] | TGI [9] [µM] | TGI [10] [µM] | TGI [11] [µM] |
| --- | --- | --- | --- | --- | --- | --- | --- | --- | --- | --- | --- |
| Clc1ccc(C(OCn2ccnc2)c2nc3ccccc3[nH]2)c(Cl)c1 (stereo not drawn) | > 100 | > 100 | > 100 | > 100 | > 100 | > 100 | > 100 | 92.4 | > 100 | – | – |
| Nc1nccc(NCC2(CO)CC(CCc3ccccc3)C2)n1 (stereo not drawn) | 39.7 | 28.6 | 30.6 | 34.4 | 34.4 | 22.2 | 34.2 | 51 | 37.9 | 36 | – |
| CN(CC(=O)Nc1ccccc1C(=O)O)c1ccccc1 | > 100 | > 100 | > 100 | > 100 | > 100 | > 100 | > 100 | > 100 | > 100 | > 100 | – |
| Cc1cc(C=O)c2c(=O)c3c(O)ccc(/C=C/C(C)C)c3oc2c1 | > 100 | > 100 | – | 59.4 | – | – | > 100 | 58.8 | > 100 | – | – |
| CCOc1ccc(OP2(=O)NC(=O)C=C(C)N2)cc1 (stereo not drawn) | > 100 | > 100 | – | > 100 | > 100 | – | > 100 | > 100 | > 100 | > 100 | > 100 |
| COC(=O)/C(=N\N)C(C(=O)C(=O)Nc1cc(Cl)ccc1Cl)c1nc2ccc([N+](=O)[O-])cc2[nH]c1=O (stereo not drawn) | > 100 | > 100 | – | > 100 | > 100 | > 100 | > 100 | > 100 | > 100 | > 100 | > 100 |
| O=C(NC1CCCCC1)c1n[nH]nc1Cl | > 100 | > 100 | > 100 | – | > 100 | > 100 | > 100 | – | > 100 | > 100 | > 100 |
| CCOC(=O)C1(C)CCC(C(=O)OC)C1=O (stereo not drawn) | > 100 | > 100 | – | > 100 | 32.9 | – | > 100 | > 100 | > 100 | > 100 | > 100 |
| CN1S(=O)(=O)N(C)P12(N=P(CP(=NP13(N(C)S(=O)(=O)N1C)N(C)S(=O)(=O)N3C)(c1ccccc1)c1ccccc1)(c1ccccc1)c1ccccc1)N(C)S(=O)(=O)N2C | > 100 | > 100 | – | > 100 | > 100 | – | > 100 | > 100 | > 100 | > 100 | > 100 |
| S=c1[nH]nc(Cn2c3ccc(Br)cc3c3nc4ccccc4nc32)o1 | 59.3 | > 100 | > 100 | – | > 65.4 | > 100 | > 100 | 6.82 | > 100 | > 60 | > 100 |
| O=C(c1c(F)c(F)c(F)c(F)c1F)n1c(=S)n(C(=O)c2c(F)c(F)c(F)c(F)c2F)c2ccccc21 | – | – | > 100 | 45.6 | > 100 | > 100 | > 100 | > 100 | > 100 | – | > 100 |
| CCCCCCC1OC23OC1CCC2C(O)CCC3O (stereo not drawn) | – | > 100 | > 100 | > 100 | > 100 | > 100 | > 100 | > 100 | > 100 | > 100 | – |
| NC(Cc1cc(I)c(Oc2ccc(O)c(I)c2)c(I)c1)C(=O)O (stereo not drawn) | > 100 | > 100 | > 100 | – | > 100 | > 100 | > 100 | 84 | > 100 | > 100 | > 100 |
| NS(=O)(=O)c1c(O)c2ccccc2oc1=O | > 100 | > 100 | > 100 | > 100 | > 100 | > 100 | > 100 | > 100 | > 100 | > 100 | – |
| COC(=O)C1(CCCCl)CCCN1C(=O)OC(C)(C)C (stereo not drawn) | > 100 | > 100 | > 100 | – | > 100 | > 100 | > 100 | – | > 100 | > 100 | > 100 |
| CN(/N=C/c1ccccn1)C1=NCCN1 | > 100 | > 100 | – | > 100 | > 100 | > 100 | > 100 | > 100 | > 100 | > 100 | > 100 |
| COc1ccc(OC)c(/C=C2/C(=O)N=C(NC(C)=O)N2C)c1 | > 100 | > 100 | > 100 | > 100 | > 100 | > 100 | > 100 | – | > 100 | > 100 | > 100 |
| Cc1cn([C@H]2C[C@@H](N3C(=O)c4ccccc4C3=O)[C@@H](CO[Si](C)(C)C(C)(C)C)O2)c(=O)[nH]c1=O | > 100 | > 100 | > 100 | – | > 100 | > 100 | > 100 | > 100 | > 100 | 52 | > 100 |
| O=C1/C(=C/c2ccc(Br)s2)NC(=S)N1CN1CCCCC1 | – | 59.2 | > 100 | 50 | 52 | 57.8 | > 100 | 50.8 | > 100 | 60.7 | – |
| COC(=O)C1CC2CC1C1C2SC(F)(F)C1(F)F (stereo not drawn) | > 100 | > 100 | > 100 | – | > 100 | > 100 | > 100 | > 100 | > 100 | > 100 | > 100 |
| COC(=O)c1sc(=S)sc1SCc1cccc(CSc2sc(=S)sc2C(=O)OC)c1 | – | > 100 | > 100 | – | > 100 | > 100 | > 100 | > 100 | > 100 | 34.3 | 51.3 |
| COc1cc(Nc2nc3cc(C)ccc3nc2-c2ccccc2)cc(OC)c1OC | > 100 | > 100 | – | 54.5 | > 100 | – | > 100 | – | > 100 | – | > 100 |
| Cc1[nH]c(=O)c2oc3cc4ccccc4cc3c2c1C(=O)O | > 10 | – | > 10 | > 10 | > 10 | > 10 | > 10 | – | > 10 | > 10 | > 10 |

| SMILES | TGI [1] [µM] | TGI [2] [µM] | TGI [3] [µM] | TGI [4] [µM] | TGI [5] [µM] | TGI [6] [µM] | TGI [7] [µM] | TGI [8] [µM] | TGI [9] [µM] | TGI [10] [µM] | TGI [11] [µM] |
| --- | --- | --- | --- | --- | --- | --- | --- | --- | --- | --- | --- |
| COC(=O)/C=C1\C(CO[Si](C)(C)C(C)(C)C)OC(n2ccc(=O)[nH]c2=O)C1O (stereo not drawn) | 82.9 | > 100 | 32.7 | – | 15.5 | 31.4 | 50.9 | 29.4 | > 40.4 | 32.5 | – |
| CO/C(N)=C(\C#N)N=Cc1ccsc1 | > 100 | > 100 | > 100 | 45.9 | 36.7 | > 100 | > 100 | – | > 100 | > 100 | > 100 |
| COc1cc(S(=O)(=O)Nc2nc(-c3ccc(N=Cc4ccccc4O)cc3)cs2)ccc1Cl | > 100 | > 100 | > 100 | > 100 | > 100 | > 100 | > 100 | – | > 100 | > 100 | > 100 |
| Cc1csc(=Nc2ccccc2)n1CCC(O)(P(=O)(O)O)P(=O)(O)O | > 100 | > 100 | > 100 | – | > 100 | > 100 | > 100 | – | > 100 | > 100 | > 100 |
| Cc1ccc2c(c1C)CC1(Cc3ccc(C)c(C)c3C1=O)C2=O (stereo not drawn) | > 100 | > 100 | > 100 | > 100 | > 100 | > 100 | > 100 | > 100 | > 100 | 54.3 | – |
| N#CC1=C(S)N(C2OC(CO)C(O)C(O)C2O)C(c2ccccc2)=CC1c1ccco1 (stereo not drawn) | > 100 | > 100 | > 100 | > 100 | 93 | > 100 | > 100 | > 100 | > 100 | > 100 | – |
| Cc1cc2nnn(C3CCCCO3)c2cc1C (stereo not drawn) | > 100 | > 100 | > 100 | – | – | > 100 | > 100 | – | > 100 | > 100 | > 100 |
| C/C=C1/C=CC2c3[nH]c4ccccc4c3CCN2C1 (stereo not drawn) | > 400 | > 400 | – | > 400 | > 400 | – | – | > 400 | > 400 | > 400 | > 400 |
| CC[C@@H]1CC[C@@H]2[C@H](CC[C@]3(C)[C@@H](O[N+](=O)[O-])CC[C@@H]23)[C@H]1C(C)=O | > 100 | > 100 | > 100 | 37 | 39.5 | 83.1 | > 100 | 49.9 | 55 | > 100 | – |
| O=C(O)CCC(NC(=O)c1ccc(Nc2nc3ccc(C(F)(F)F)cc3nc2C(=O)O)cc1)C(=O)O (stereo not drawn) | > 100 | – | > 100 | > 100 | > 100 | > 100 | > 100 | > 100 | > 100 | > 100 | – |
| CC(=O)n1c2ccc(Br)cc2c2nc3ccccc3nc21 | – | > 100 | > 100 | > 100 | > 100 | > 100 | > 100 | > 100 | > 100 | > 100 | – |
| CN(Cc1cccc2ccsc12)/N=C\c1ccc(Cl)cc1 | > 100 | > 100 | > 100 | – | > 100 | > 100 | > 100 | – | 95.4 | > 100 | > 100 |
| CCOC(OCC)(OCC)C(Br)CC (stereo not drawn) | > 100 | > 100 | – | > 100 | > 100 | – | > 100 | 47.5 | > 100 | > 100 | > 100 |
| O=c1c2sc3ccccc3sc=2c(=O)c2c(Cl)c(Cl)c(Cl)c(Cl)c12 | > 100 | > 100 | > 100 | – | – | > 100 | > 100 | > 100 | > 100 | > 100 | > 100 |
| O[C@@H]1[C@H](OC2c3ccccc3-c3ccccc32)[C@H](OCc2ccccc2)[C@@H]2OC[C@H]1O2 | > 100 | > 100 | > 100 | > 100 | > 100 | > 100 | > 100 | > 100 | > 100 | > 100 | – |
| CCN(CC)c1ccc(Cl)c2c1C(O)(C(C)C)C2(C)C (stereo not drawn) | 35.1 | 34.2 | – | 38.8 | 35.1 | – | 30.6 | 31.2 | 27.6 | 29.7 | 29.3 |
| CCOc1ccc(NC(=O)C(=O)C(/C(=N/N)C(=O)OC)c2nc3ccc([N+](=O)[O-])cc3[nH]c2=O)cc1 (stereo not drawn) | > 100 | > 100 | > 100 | – | > 100 | > 100 | > 100 | > 100 | > 100 | > 100 | > 100 |
| CCN(C(=O)N[C@@H](CC(C)C)C(=O)NCC(=O)OC)c1ccccc1 | > 100 | > 100 | > 100 | – | > 100 | > 100 | > 100 | > 100 | 61.9 | > 100 | > 100 |
| COc1cc(Nc2cc(Cl)cc(Cl)c2)nc(N)n1 | 48.5 | 42.8 | 48.6 | – | 32.2 | 91.4 | > 100 | 56.5 | 38.8 | 28.4 | 64.5 |
| COC(=O)c1c(C)cccc1C1CN=NC12Cc1cc(C)c(C)cc1C2=O (stereo not drawn) | > 100 | > 100 | > 100 | 45.5 | 67.9 | > 100 | > 100 | – | > 100 | > 100 | > 100 |
| CS(=O)(=O)CCC1CCC(=O)O1 (stereo not drawn) | > 100 | > 100 | > 100 | > 100 | > 100 | > 100 | > 100 | > 100 | > 100 | > 100 | – |
| CC(=O)Nc1nc2c(=O)c3ccccc3sc2s1 | > 100 | > 100 | > 100 | > 100 | – | > 100 | > 100 | > 100 | > 100 | > 100 | – |
